Experimental data as given in patent publication US8349899B1 (Arrowhead Center, Inc., priority 2008, dated 2013).
Like-named read-outs stand apart in the source and are kept apart here.

Legend:
[1] = test system: HeLa cervical adenocarcinoma cells; assay: bipolar spindle formation in HeLa cells; type: cell-based, human; conditions: for inhibitory activity in the cell-based assay: HeLa bipolar spindle formation; for IC50: read-out: Bipolar spindle formation IC50
Method: (§1) Biochemical- and cell-based assays were used to evaluate the inhibitory activities of the STLC analogs. Using a commercially available assay from Cytoskeleton, Inc, analogs were assayed for their ability to block the microtubule-activated ATPase activity of recombinant human EG5 motor domain. In parallel, HeLa cells were treated for four hours with a range of concentrations, and then fixed, stained for microtubules, and mitotic cells were scored for spindle bipolarity.

[2] = target: T1, recombinant human EG5 motor domain (Homo sapiens, UniProt P52732); assay: microtubule-activated Eg5 ATPase assay (Cytoskeleton, Inc); type: biochemical; conditions: for inhibitory activity in the biochemical assay: Eg5 ATPase assay; for IC50: microtubule-activated ATPase activity of recombinant human EG5 motor domain
T1 construct: recombinant human EG5 motor domain; purchased Cytoskeleton, Inc
T1 sequence (P52732 18-359 limits assumed): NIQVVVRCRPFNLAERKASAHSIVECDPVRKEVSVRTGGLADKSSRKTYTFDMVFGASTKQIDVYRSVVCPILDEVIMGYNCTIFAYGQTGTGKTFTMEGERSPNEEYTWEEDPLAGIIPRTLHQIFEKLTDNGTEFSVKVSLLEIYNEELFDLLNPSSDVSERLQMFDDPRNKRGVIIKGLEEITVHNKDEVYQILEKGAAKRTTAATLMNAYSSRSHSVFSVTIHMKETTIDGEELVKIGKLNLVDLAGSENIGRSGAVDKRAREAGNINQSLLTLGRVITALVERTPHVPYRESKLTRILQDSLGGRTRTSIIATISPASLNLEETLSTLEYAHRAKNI
Method: as §1

[3] = test system: NCI-H522; conditions: Non-Small Cell Lung NCI-H522; data previously determined; cited from earlier work
[4] = test system: SK-OV-3; conditions: Ovarian SK-OV-3; data previously determined; cited from earlier work
[5] = test system: HCT-116; conditions: Colon HCT-116; data previously determined; cited from earlier work
[6] = test system: OVCAR-5; conditions: Ovarian OVCAR-5; data previously determined; cited from earlier work
[7] = test system: NCI-H226; conditions: Non-Small Cell Lung NCI-H226; data previously determined; cited from earlier work
[8] = test system: UO-31; conditions: Renal UO-31; data previously determined; cited from earlier work
[9] = test system: SF-295; conditions: Central Nervous System SF-295; data previously determined; cited from earlier work
[10] = test system: U251; conditions: Central Nervous System U251; data previously determined; cited from earlier work
[11] = Homo sapiens, HeLa cells treated with analog for 4 hours, scored for bipolar vs monopolar spindle formation

Row | Compound | inhibitory activity in the cell-based assay [1] | IC50 [1, 11] | inhibitory activity in the biochemical assay [2] | IC50 [2] | other results
1 | N[C@@H](CSC(c1ccccc1)c1ccccc1)C(=O)O [Compound 2.9, (R)-2-amino-3-(benzhydrylthio)propanoic acid] | no measurable activity | > 100000 nM | no measurable activity | > 100000 nM | 
2 | CC(=O)N[C@@H](CSC(c1ccccc1)(c1ccccc1)c1ccccc1)C(N)=O [Compound 3.6, (R)-2-acetamido-3-(tritylthio)propanamide] | no measurable activity | > 100000 nM | no measurable activity | > 100000 nM | 
3 | N[C@@H](CSC(c1ccccc1)(c1ccccc1)c1ccccc1)C(=O)O [Compound 2.5, (R)-2-amino-3-(tritylthio)propanoic acid] |  | 660 nM |  |  | GI50 [3]: 500 nM; GI50 [4]: 100000 nM; GI50 [5]: 500 nM; GI50 [6]: 100000 nM; GI50 [7]: 100000 nM; GI50 [8]: 100000 nM; GI50 [9]: 500 nM; GI50 [10]: 1000 nM
4 | N[C@@H](CSC1c2ccccc2-c2ccccc21)C(=O)O [Compound 3.0, (R)-3-((9H-fluoren-9-yl)thio)-2-aminopropanoic acid] | no measurable activity | > 100000 nM | no measurable activity | > 100000 nM | 
5 | CC(=O)N[C@@H](CSC(c1ccccc1)(c1ccccc1)c1ccccc1)C(=O)O [Compound 3.1, (R)-2-acetamido-3-(tritylthio)propanoic acid] | no measurable activity | > 100000 nM | no measurable activity | > 100000 nM | 
6 | C#CCNC(=O)[C@@H](N)CSC(c1ccccc1)(c1ccccc1)c1ccc(OC)cc1 [Compound 4.0] |  | 440 nM |  | 310 nM | 
7 | N[C@H](CO)CSC(c1ccccc1)(c1ccccc1)c1ccccc1 [Compound 1.1] |  |  |  |  | IC50 ([1]; Homo sapiens, HeLa, 4 h): 580 nM
8 | NC(=O)[C@@H](N)CSC(c1ccccc1)(c1ccccc1)c1ccccc1 [Compound 3.3, (R)-2-amino-3-(tritylthio)propanamide] |  | 670 nM |  | 540 nM | 
9 | CCCCNC(=O)[C@@H](N)CSC(c1ccccc1)(c1ccccc1)c1ccccc1 [Compound 3.8, (R)-2-amino-N-butyl-3-(tritylthio)propanamide] |  | 680 nM |  | 560 nM | 
10 | N[C@@H](CSCC1c2ccccc2-c2ccccc21)C(=O)O [Compound 2.7, (R)-3-(((9H-fluoren-9-yl)methyl)thio)-2-aminopropanoic acid] | no measurable activity | > 100000 nM | no measurable activity | > 100000 nM | 
11 | COC(=O)[C@@H](N)CSC(c1ccccc1)(c1ccccc1)c1ccccc1 [Compound 3.2, (R)-methyl 2-amino-3-(tritylthio)propanoate] |  | 920 nM |  | 510 nM | 
12 | C#CCNC(=O)[C@@H](N)CSC(c1ccccc1)(c1ccccc1)c1ccccc1 [Compound 3.5, (R)-2-amino-N-(prop-2-yn-1-yl)-3-(tritylthio)propanamide] |  | 760 nM |  | 490 nM | 
13 | N[C@@H](CSC(c1ccccc1)(c1ccccc1)c1cccnc1)C(=O)O [Compound 3.4, (R)-2-amino-3-((diphenyl(pyridin-3-yl)methyl)thio)propanoic acid] | no measurable activity | > 100000 nM | no measurable activity | > 100000 nM | 
14 | (R)-2-amino-3-(((4-methoxyphenyl)diphenylmethyl)thio)propanamide [Compound 3.9] | no measurable activity |  | no measurable activity |  | IC50 ([1]; HeLa cells treated with analog for 4 hours, scored for bipolar vs monopolar spindle formation): > 100000 nM
15 | COc1ccc(C(SC[C@@H](N)CO)(c2ccccc2)c2ccccc2)cc1 [Compound 1.3] |  |  |  |  | IC50 ([1]; Homo sapiens, HeLa, 4 h): 200 nM
16 | COc1ccc(C(SC[C@H](N)C(=O)NCCOCCN)(c2ccccc2)c2ccccc2)cc1 [Compound 4.2, (R)-2-amino-N-(2-(2-aminoethoxy)ethyl)-3-(((4-methoxyphenyl)diphenylmethyl)thio)propanamide] |  | 540 nM |  | 280 nM | 
17 | N[C@@H](COC(c1ccccc1)(c1ccccc1)c1ccccc1)C(=O)O [Compound 2.8, (S)-2-amino-3-(trityloxy)propanoic acid] |  | 850 nM |  | 760 nM | 
